In ChEMBL document CHEMBL3994622, “Design and synthesis of new RAF kinase-inhibiting antiproliferative quinoline derivatives. Part 2: Diarylurea derivatives” (Eur J Med Chem, 2017):

tested on: HT-29; assay: Growth inhibition of human HT-29 cells assessed as cell growth at 10 uM incubated for 48 hrs by sulforhodamine B assay relative to control; format: functional; settings: HT-29, 48 h, read-out: Activity

SMILES | growth at 10 µM
COc1cc2cc(Sc3ccc(NC(=O)Nc4ccc(Cl)c(Cl)c4)cc3)c(C)nc2cc1OC | 91.9%

tested on: IGROV-1; assay: Growth inhibition of human IGROV1 cells assessed as cell growth at 10 uM incubated for 48 hrs by sulforhodamine B assay relative to control; format: functional; settings: IGROV-1, 48 h, read-out: Activity

SMILES | growth at 10 µM
COc1cc2cc(Sc3ccc(NC(=O)Nc4ccc(Cl)c(Cl)c4)cc3)c(C)nc2cc1OC | 75.3%

tested on: SF-268; assay: Growth inhibition of human SF268 cells assessed as cell growth at 10 uM incubated for 48 hrs by sulforhodamine B assay relative to control; format: functional; settings: SF-268, 48 h, read-out: Activity

SMILES | growth at 10 µM
COc1cc2cc(Sc3ccc(NC(=O)Nc4ccc(Cl)c(Cl)c4)cc3)c(C)nc2cc1OC | 72.6%

tested on: NCI-H23; assay: Growth inhibition of human NCI-H23 cells assessed as cell growth at 10 uM incubated for 48 hrs by sulforhodamine B assay relative to control; format: functional; settings: NCI-H23, 48 h, read-out: Activity

SMILES | growth at 10 µM
COc1cc2cc(Sc3ccc(NC(=O)Nc4ccc(Cl)c(Cl)c4)cc3)c(C)nc2cc1OC | 84.7%

tested on: LOX IMVI; assay: Growth inhibition of human LOXIMVI cells assessed as cell growth at 10 uM incubated for 48 hrs by sulforhodamine B assay relative to control; format: functional; settings: read-out: Activity

SMILES | growth at 10 µM
COc1cc2cc(Sc3ccc(NC(=O)Nc4ccc(Cl)c(Cl)c4)cc3)c(C)nc2cc1OC | 94.7%

tested on: NCI-H460; assay: Growth inhibition of human NCI-H460 cells assessed as cell growth at 10 uM incubated for 48 hrs by sulforhodamine B assay relative to control; format: functional; settings: NCI-H460, 48 h, read-out: Activity

SMILES | growth at 10 µM
COc1cc2cc(Sc3ccc(NC(=O)Nc4ccc(Cl)c(Cl)c4)cc3)c(C)nc2cc1OC | 74.6%

tested on: Malme-3M; assay: Growth inhibition of human MALME-3M cells assessed as cell growth at 10 uM incubated for 48 hrs by sulforhodamine B assay relative to control; format: functional; settings: read-out: Activity

SMILES | growth at 10 µM
COc1cc2cc(Sc3ccc(NC(=O)Nc4ccc(Cl)c(Cl)c4)cc3)c(C)nc2cc1OC | 89.9%

tested on: SF-295; assay: Growth inhibition of human SF295 cells assessed as cell growth at 10 uM incubated for 48 hrs by sulforhodamine B assay relative to control; format: functional; settings: SF-295, 48 h, read-out: Activity

SMILES | growth at 10 µM
COc1cc2cc(Sc3ccc(NC(=O)Nc4ccc(Cl)c(Cl)c4)cc3)c(C)nc2cc1OC | 56.5%

tested on: HCT-15; assay: Growth inhibition of human HCT15 cells assessed as cell growth at 10 uM incubated for 48 hrs by sulforhodamine B assay relative to control; format: functional; settings: HCT-15, 48 h, read-out: Activity

SMILES | growth at 10 µM
COc1cc2cc(Sc3ccc(NC(=O)Nc4ccc(Cl)c(Cl)c4)cc3)c(C)nc2cc1OC | 75.9%

tested on: SF-539; assay: Growth inhibition of human SF539 cells assessed as cell growth at 10 uM incubated for 48 hrs by sulforhodamine B assay relative to control; format: functional; settings: SF-539, 48 h, read-out: Activity

SMILES | growth at 10 µM
COc1cc2cc(Sc3ccc(NC(=O)Nc4ccc(Cl)c(Cl)c4)cc3)c(C)nc2cc1OC | 86%

tested on: A498; assay: Growth inhibition of human A498 cells assessed as cell growth at 10 uM incubated for 48 hrs by sulforhodamine B assay relative to control; format: functional; settings: A498, 48 h, read-out: Activity

SMILES | growth at 10 µM
COc1cc2cc(Sc3ccc(NC(=O)Nc4ccc(Cl)c(Cl)c4)cc3)c(C)nc2cc1OC | 73%

tested on: U-251; assay: Growth inhibition of human U251 cells assessed as cell growth at 10 uM incubated for 48 hrs by sulforhodamine B assay relative to control; format: functional; settings: U-251, 48 h, read-out: Activity

SMILES | growth at 10 µM
COc1cc2cc(Sc3ccc(NC(=O)Nc4ccc(Cl)c(Cl)c4)cc3)c(C)nc2cc1OC | 70%

tested on: MDA-MB-468; assay: Growth inhibition of human MDA-MB-468 cells assessed as cell growth at 10 uM incubated for 48 hrs by sulforhodamine B assay relative to control; format: functional; settings: MDA-MB-468, 48 h, read-out: Activity

SMILES | growth at 10 µM
COc1cc2cc(Sc3ccc(NC(=O)Nc4ccc(Cl)c(Cl)c4)cc3)c(C)nc2cc1OC | 55.1%

tested on: K562; assay: Growth inhibition of human K562 cells assessed as cell growth at 10 uM incubated for 48 hrs by sulforhodamine B assay relative to control; format: functional; settings: K562, 48 h, read-out: Activity

SMILES | growth at 10 µM
COc1cc2cc(Sc3ccc(NC(=O)Nc4ccc(Cl)c(Cl)c4)cc3)c(C)nc2cc1OC | 52.5%

tested on: MCF7; assay: Growth inhibition of human MCF7 cells assessed as cell growth at 10 uM incubated for 48 hrs by sulforhodamine B assay relative to control; format: functional; settings: MCF7, 48 h, read-out: Activity

SMILES | growth at 10 µM
COc1cc2cc(Sc3ccc(NC(=O)Nc4ccc(Cl)c(Cl)c4)cc3)c(C)nc2cc1OC | 75.3%

tested on: SK-MEL-2; assay: Growth inhibition of human SK-MEL-2 cells assessed as cell growth at 10 uM incubated for 48 hrs by sulforhodamine B assay relative to control; format: functional; settings: SK-MEL-2, 48 h, read-out: Activity

SMILES | growth at 10 µM
COc1cc2cc(Sc3ccc(NC(=O)Nc4ccc(Cl)c(Cl)c4)cc3)c(C)nc2cc1OC | 72.6%

tested on: HOP-92; assay: Growth inhibition of human HOP92 cells assessed as cell growth at 10 uM incubated for 48 hrs by sulforhodamine B assay relative to control; format: functional; settings: HOP-92, 48 h, read-out: Activity

SMILES | growth at 10 µM
COc1cc2cc(Sc3ccc(NC(=O)Nc4ccc(Cl)c(Cl)c4)cc3)c(C)nc2cc1OC | 71.2%

tested on: OVCAR-4; assay: Growth inhibition of human OVCAR4 cells assessed as cell growth at 10 uM incubated for 48 hrs by sulforhodamine B assay relative to control; format: functional; settings: OVCAR-4, 48 h, read-out: Activity

SMILES | growth at 10 µM
COc1cc2cc(Sc3ccc(NC(=O)Nc4ccc(Cl)c(Cl)c4)cc3)c(C)nc2cc1OC | 78.2%

tested on: MDA-MB-435; assay: Growth inhibition of human MDA-MB-435 cells assessed as cell growth at 10 uM incubated for 48 hrs by sulforhodamine B assay relative to control; format: functional; settings: MDA-MB-435, 48 h, read-out: Activity

SMILES | growth at 10 µM
COc1cc2cc(Sc3ccc(NC(=O)Nc4ccc(Cl)c(Cl)c4)cc3)c(C)nc2cc1OC | 76.7%

tested on: OVCAR-3; assay: Growth inhibition of human OVCAR3 cells assessed as cell growth at 10 uM incubated for 48 hrs by sulforhodamine B assay relative to control; format: functional; settings: OVCAR-3, 48 h, read-out: Activity

SMILES | growth at 10 µM
COc1cc2cc(Sc3ccc(NC(=O)Nc4ccc(Cl)c(Cl)c4)cc3)c(C)nc2cc1OC | 73%

tested on: COLO 205; assay: Growth inhibition of human COLO205 cells assessed as cell growth at 10 uM incubated for 48 hrs by sulforhodamine B assay relative to control; format: functional; settings: COLO 205, 48 h, read-out: Activity

SMILES | growth at 10 µM
COc1cc2cc(Sc3ccc(NC(=O)Nc4ccc(Cl)c(Cl)c4)cc3)c(C)nc2cc1OC | 87.8%

tested on: 786-0; assay: Growth inhibition of human 786-0 cells assessed as cell growth at 10 uM incubated for 48 hrs by sulforhodamine B assay relative to control; format: functional; settings: 786-0, 48 h, read-out: Activity

SMILES | growth at 10 µM
COc1cc2cc(Sc3ccc(NC(=O)Nc4ccc(Cl)c(Cl)c4)cc3)c(C)nc2cc1OC | 73.4%

tested on: SK-MEL-5; assay: Growth inhibition of human SK-MEL-5 cells assessed as cell growth at 10 uM incubated for 48 hrs by sulforhodamine B assay relative to control; format: functional; settings: SK-MEL-5, 48 h, read-out: Activity

SMILES | growth at 10 µM
COc1cc2cc(Sc3ccc(NC(=O)Nc4ccc(Cl)c(Cl)c4)cc3)c(C)nc2cc1OC | 71%

tested on: ACHN; assay: Growth inhibition of human ACHN cells assessed as cell growth at 10 uM incubated for 48 hrs by sulforhodamine B assay relative to control; format: functional; settings: read-out: Activity

SMILES | growth at 10 µM
COc1cc2cc(Sc3ccc(NC(=O)Nc4ccc(Cl)c(Cl)c4)cc3)c(C)nc2cc1OC | 72.6%

tested on: CAKI-1; assay: Growth inhibition of human Caki1 cells assessed as cell growth at 10 uM incubated for 48 hrs by sulforhodamine B assay relative to control; format: functional; settings: CAKI-1, 48 h, read-out: Activity

SMILES | growth at 10 µM
COc1cc2cc(Sc3ccc(NC(=O)Nc4ccc(Cl)c(Cl)c4)cc3)c(C)nc2cc1OC | 64.5%

tested on: SNB-19; assay: Growth inhibition of human SNB19 cells assessed as cell growth at 10 uM incubated for 48 hrs by sulforhodamine B assay relative to control; format: functional; settings: SNB-19, 48 h, read-out: Activity

SMILES | growth at 10 µM
COc1cc2cc(Sc3ccc(NC(=O)Nc4ccc(Cl)c(Cl)c4)cc3)c(C)nc2cc1OC | 84.9%

tested on: UO-31; assay: Growth inhibition of human UO31 cells assessed as cell growth at 10 uM incubated for 48 hrs by sulforhodamine B assay relative to control; format: functional; settings: UO-31, 48 h, read-out: Activity

SMILES | growth at 10 µM
COc1cc2cc(Sc3ccc(NC(=O)Nc4ccc(Cl)c(Cl)c4)cc3)c(C)nc2cc1OC | 62.8%

tested on: NCI-H226; assay: Growth inhibition of human NCI-H226 cells assessed as cell growth at 10 uM incubated for 48 hrs by sulforhodamine B assay relative to control; format: functional; settings: NCI-H226, 48 h, read-out: Activity

SMILES | growth at 10 µM
COc1cc2cc(Sc3ccc(NC(=O)Nc4ccc(Cl)c(Cl)c4)cc3)c(C)nc2cc1OC | 90.9%

tested on: OVCAR-5; assay: Growth inhibition of human OVCAR5 cells assessed as cell growth at 10 uM incubated for 48 hrs by sulforhodamine B assay relative to control; format: functional; settings: OVCAR-5, 48 h, read-out: Activity

SMILES | growth at 10 µM
COc1cc2cc(Sc3ccc(NC(=O)Nc4ccc(Cl)c(Cl)c4)cc3)c(C)nc2cc1OC | 84.7%

tested on: A549; assay: Growth inhibition of human A549/ATCC cells assessed as cell growth at 10 uM incubated for 48 hrs by sulforhodamine B assay relative to control; format: functional; settings: A549, 48 h, read-out: Activity

SMILES | growth at 10 µM
COc1cc2cc(Sc3ccc(NC(=O)Nc4ccc(Cl)c(Cl)c4)cc3)c(C)nc2cc1OC | 59.5%

tested on: HL-60(TB); assay: Growth inhibition of human HL-60(TB) cells assessed as cell growth at 10 uM incubated for 48 hrs by sulforhodamine B assay relative to control; format: functional; settings: HL-60, 48 h, read-out: Activity

SMILES | growth at 10 µM
COc1cc2cc(Sc3ccc(NC(=O)Nc4ccc(Cl)c(Cl)c4)cc3)c(C)nc2cc1OC | 77.3%

tested on: UACC-62; assay: Growth inhibition of human UACC62 cells assessed as cell growth at 10 uM incubated for 48 hrs by sulforhodamine B assay relative to control; format: functional; settings: UACC-62, 48 h, read-out: Activity

SMILES | growth at 10 µM
COc1cc2cc(Sc3ccc(NC(=O)Nc4ccc(Cl)c(Cl)c4)cc3)c(C)nc2cc1OC | 69.5%
